Measured values published in PubChem BioAssay (NCI).
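Five compound concentrations were applied to cells in 96-well plates for 48 hours; endpoints were derived by simple linear interpolation of the resulting dose-response curve. The concentration for full growth arrest is given as TGI.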

Legend:
Experiment in all cases: growth of human tumour cells (NCI), 48 h
LXFL 529 NSCLC = test system: LXFL 529 NSCLC
CAKI-1 renal = test system: CAKI-1 renal
MOLT-4 leukemia = test system: MOLT-4 leukemia
SF-539 CNS = test system: SF-539 CNS
A549 NSCLC = test system: A549 NSCLC
LOX IMVI melanoma = test system: LOX IMVI melanoma
COLO 205 colon = test system: COLO 205 colon
SN12C renal = test system: SN12C renal
HOP-92 NSCLC = test system: HOP-92 NSCLC
EKVX NSCLC = test system: EKVX NSCLC
HT29 colon = test system: HT29 colon
SNB-78 CNS = test system: SNB-78 CNS
DMS 273 small cell lung = test system: DMS 273 small cell lung
OVCAR-4 ovarian = test system: OVCAR-4 ovarian
OVCAR-8 ovarian = test system: OVCAR-8 ovarian
NCI/ADR-RES ovarian = test system: NCI/ADR-RES ovarian
MCF7 breast = test system: MCF7 breast
HL-60(TB) leukemia = test system: HL-60(TB) leukemia
SNB-19 CNS = test system: SNB-19 CNS
DU-145 prostate = test system: DU-145 prostate
HOP-18 NSCLC = test system: HOP-18 NSCLC
SNB-75 CNS = test system: SNB-75 CNS
M19-MEL melanoma = test system: M19-MEL melanoma
NCI-H460 lung = test system: NCI-H460 lung
KM12 colon = test system: KM12 colon
U251 CNS = test system: U251 CNS
SR leukemia = test system: SR leukemia
DMS 114 small cell lung = test system: DMS 114 small cell lung
SK-MEL-28 melanoma = test system: SK-MEL-28 melanoma
MALME-3M melanoma = test system: MALME-3M melanoma
OVCAR-5 ovarian = test system: OVCAR-5 ovarian
786-0 renal = test system: 786-0 renal
DLD-1 colon = test system: DLD-1 colon
NCI-H226 lung = test system: NCI-H226 lung
K-562 leukemia = test system: K-562 leukemia
OVCAR-3 ovarian = test system: OVCAR-3 ovarian
SF-295 CNS = test system: SF-295 CNS
CCRF-CEM leukemia = test system: CCRF-CEM leukemia
IGROV1 ovarian = test system: IGROV1 ovarian
BT-549 breast = test system: BT-549 breast
NCI-H23 lung = test system: NCI-H23 lung
MDA-MB-231 breast = test system: MDA-MB-231 breast
HCT-15 colon = test system: HCT-15 colon
UO-31 renal = test system: UO-31 renal
HS 578T breast = test system: HS 578T breast
SK-MEL-2 melanoma = test system: SK-MEL-2 melanoma
RXF 393 renal = test system: RXF 393 renal
MDA-N = test system: MDA-N
MDA-MB-435 = test system: MDA-MB-435
XF 498 CNS = test system: XF 498 CNS
NCI-H522 lung = test system: NCI-H522 lung
A498 renal = test system: A498 renal
SF-268 CNS = test system: SF-268 CNS
HCC-2998 colon = test system: HCC-2998 colon
PC-3 prostate = test system: PC-3 prostate
T-47D breast = test system: T-47D breast
SK-MEL-5 melanoma = test system: SK-MEL-5 melanoma
ACHN renal = test system: ACHN renal
HCT-116 colon = test system: HCT-116 colon
SK-OV-3 ovarian = test system: SK-OV-3 ovarian
UACC-62 melanoma = test system: UACC-62 melanoma
M14 melanoma = test system: M14 melanoma
UACC-257 melanoma = test system: UACC-257 melanoma
RPMI-8226 leukemia = test system: RPMI-8226 leukemia
TK-10 renal = test system: TK-10 renal
SW-620 colon = test system: SW-620 colon
HOP-62 NSCLC = test system: HOP-62 NSCLC

With Cn1ccn2c3nc4ccccc4nc3c(=O)c(C#N)c12 the TGI (LXFL 529 NSCLC) was > 100 µM, the TGI (CAKI-1 renal) was > 100 µM and the TGI (MOLT-4 leukemia) was > 100 µM. The TGI (SF-539 CNS) was > 100 µM, the TGI (A549 NSCLC) was > 100 µM and the TGI (LOX IMVI melanoma) was > 100 µM. For the same compound, the TGI (COLO 205 colon) was > 100 µM, the TGI (SN12C renal) was > 100 µM and the TGI (HOP-92 NSCLC) was > 100 µM. For the same compound, the TGI (EKVX NSCLC) was > 100 µM, the TGI (HT29 colon) was > 100 µM and the TGI (SNB-78 CNS) was > 100 µM. For the same compound, the TGI (DMS 273 small cell lung) was > 100 µM, the TGI (OVCAR-4 ovarian) was > 100 µM and the TGI (OVCAR-8 ovarian) was > 100 µM. The TGI (NCI/ADR-RES ovarian) was > 81.8 µM, the TGI (MCF7 breast) was > 100 µM and the TGI (HL-60(TB) leukemia) was > 100 µM. The TGI (SNB-19 CNS) was > 100 µM, the TGI (DU-145 prostate) was > 100 µM and the TGI (HOP-18 NSCLC) was > 100 µM. The TGI (SNB-75 CNS) was > 100 µM, the TGI (M19-MEL melanoma) was > 100 µM and the TGI (NCI-H460 lung) was > 100 µM. For the same compound, the TGI (KM12 colon) was > 100 µM, the TGI (U251 CNS) was > 100 µM and the TGI (SR leukemia) was > 100 µM. The TGI (DMS 114 small cell lung) was > 100 µM, the TGI (SK-MEL-28 melanoma) was > 100 µM and the TGI (MALME-3M melanoma) was > 100 µM. For the same compound, the TGI (OVCAR-5 ovarian) was > 100 µM, the TGI (786-0 renal) was > 89.9 µM and the TGI (DLD-1 colon) was > 100 µM. The TGI (NCI-H226 lung) was > 100 µM, the TGI (K-562 leukemia) was > 100 µM and the TGI (OVCAR-3 ovarian) was > 100 µM. For the same compound, the TGI (SF-295 CNS) was > 100 µM, the TGI (CCRF-CEM leukemia) was > 100 µM and the TGI (IGROV1 ovarian) was > 100 µM. The TGI (BT-549 breast) was > 100 µM, the TGI (NCI-H23 lung) was > 100 µM and the TGI (MDA-MB-231 breast) was > 100 µM. The TGI (HCT-15 colon) was > 100 µM, the TGI (UO-31 renal) was > 100 µM and the TGI (HS 578T breast) was > 100 µM. The TGI (SK-MEL-2 melanoma) was > 100 µM, the TGI (RXF 393 renal) was > 100 µM and the TGI (MDA-N) was > 100 µM. The TGI (MDA-MB-435) was > 100 µM, the TGI (XF 498 CNS) was > 100 µM and the TGI (NCI-H522 lung) was > 100 µM. For the same compound, the TGI (A498 renal) was > 100 µM, the TGI (SF-268 CNS) was > 100 µM and the TGI (HCC-2998 colon) was > 100 µM. For the same compound, the TGI (PC-3 prostate) was > 100 µM, the TGI (T-47D breast) was > 100 µM and the TGI (SK-MEL-5 melanoma) was > 13.4 µM. For the same compound, the TGI (ACHN renal) was > 100 µM, the TGI (HCT-116 colon) was > 100 µM and the TGI (SK-OV-3 ovarian) was > 100 µM. For the same compound, the TGI (UACC-62 melanoma) was > 100 µM, the TGI (M14 melanoma) was > 100 µM and the TGI (UACC-257 melanoma) was > 100 µM. For the same compound, the TGI (RPMI-8226 leukemia) was > 100 µM, the TGI (TK-10 renal) was > 100 µM and the TGI (SW-620 colon) was > 100 µM.
With COCC(=O)CP(=O)(OC)OC the TGI (LXFL 529 NSCLC) was > 100 µM, the TGI (CAKI-1 renal) was > 100 µM and the TGI (MOLT-4 leukemia) was > 100 µM. For the same compound, the TGI (SF-539 CNS) was > 100 µM, the TGI (A549 NSCLC) was > 100 µM and the TGI (LOX IMVI melanoma) was > 100 µM. The TGI (COLO 205 colon) was > 100 µM, the TGI (SN12C renal) was > 100 µM and the TGI (HOP-92 NSCLC) was > 100 µM. The TGI (EKVX NSCLC) was > 100 µM, the TGI (HT29 colon) was > 100 µM and the TGI (SNB-78 CNS) was > 100 µM. The TGI (DMS 273 small cell lung) was > 100 µM, the TGI (OVCAR-4 ovarian) was > 100 µM and the TGI (OVCAR-8 ovarian) was > 100 µM. For the same compound, the TGI (HL-60(TB) leukemia) was > 100 µM, the TGI (SNB-19 CNS) was > 100 µM and the TGI (HOP-62 NSCLC) was > 100 µM. For the same compound, the TGI (SNB-75 CNS) was > 100 µM, the TGI (M19-MEL melanoma) was > 100 µM and the TGI (NCI-H460 lung) was > 100 µM. The TGI (KM12 colon) was > 100 µM, the TGI (U251 CNS) was > 100 µM and the TGI (DMS 114 small cell lung) was > 100 µM. The TGI (SK-MEL-28 melanoma) was > 100 µM, the TGI (MALME-3M melanoma) was > 100 µM and the TGI (OVCAR-5 ovarian) was > 100 µM. The TGI (786-0 renal) was > 100 µM, the TGI (K-562 leukemia) was > 100 µM and the TGI (OVCAR-3 ovarian) was > 100 µM. The TGI (SF-295 CNS) was > 100 µM, the TGI (CCRF-CEM leukemia) was > 100 µM and the TGI (IGROV1 ovarian) was > 100 µM. The TGI (NCI-H23 lung) was > 100 µM, the TGI (HCT-15 colon) was > 100 µM and the TGI (UO-31 renal) was > 100 µM. For the same compound, the TGI (SK-MEL-2 melanoma) was > 100 µM, the TGI (RXF 393 renal) was > 100 µM and the TGI (XF 498 CNS) was > 100 µM. The TGI (NCI-H522 lung) was > 100 µM, the TGI (A498 renal) was > 100 µM and the TGI (SF-268 CNS) was > 100 µM. For the same compound, the TGI (SK-MEL-5 melanoma) was > 100 µM, the TGI (ACHN renal) was > 100 µM and the TGI (HCT-116 colon) was > 100 µM. The TGI (SK-OV-3 ovarian) was > 100 µM, the TGI (UACC-62 melanoma) was > 100 µM and the TGI (M14 melanoma) was > 100 µM. For the same compound, the TGI (UACC-257 melanoma) was > 100 µM, the TGI (RPMI-8226 leukemia) was > 100 µM and the TGI (TK-10 renal) was > 100 µM. For the same compound, the TGI (SW-620 colon) was > 100 µM.
